Marks after values point to notes of the source that are not given here.
Key:
[1] = system: Ly-6C^+ antigen presenting cells, MHCII^+ antigen presenting cells, CD8^+, Ly-6C^+ CD8^+ and CD4^+ T cells of tumor draining lymph nodes; experiment: Flow cytometric profiling of tumor draining lymph node immune cells (Example 15); assay type: in vivo, BALB/C mice; conditions: 7 days after randomization
Experimental: Hydrogels were administered as suspension in PTP buffer. Some cohorts were further treated with 20 μg human IL-2 (Peprotech, Rocky Hill, N.J.), intraperitoneally (I.P.), twice a day for 5 days. Mice were sacrificed 7 days after randomization (D0). Following sacrifice, tumor draining lymph nodes were isolated from both flanks and were dissociated mechanically to generate a single cell suspension at a cell concentration of 1×10^6 cells per sample. Cell suspensions were centrifuged at 300 g for 5 minutes. Supernatants were discarded and cells were resuspended in FACS buffer with 1 μg/ml Fc-Block and incubated at 4° C. for 10 minutes in the dark. Surface marker antibody mixtures (antibody concentration: 10 μg/mL) in FACS buffer were added to each sample and samples were incubated in the dark at 4° C. for 30 minutes. Cells were centrifuged at 300 g for 5 minutes and supernatants were discarded. Cells were washed and then resuspended with FACS buffer before cytometer collection.
After collection, FACS data was analyzed using FlowJo Version 10.6.1. Compensation was digitally adjusted using single antibody-stained beads. Samples with less than 90% viability, as determined by LiveDead cell staining, were excluded from the analysis. Cells were defined using the following gating strategy: • 1) Ly-6C^+ antigen presenting cells: FSC-H/FSC-A Singlets/LiveDead^−/CD45^+/CD3^−/CD335^−/Ly-6C^+ • 2) Ly-6C^+ MHCII^+ antigen presenting cells: FSC-H/FSC-A Singlets/LiveDead^−/CD45^+/CD3^−/CD335^−/Ly-6C^+/IA/IE (MHCII)^+ • 3) CD8^+ T cells: FSC-H/FSC-A Singlets/LiveDead^−/CD45^+/CD3^+/CD8 single positive • 4) Ly-6C^+ CD8^+ T cells: FSC-H/FSC-A Singlets/LiveDead^−/CD45^+/CD3^+/CD8 single positive/Ly-6C^+

[2] = system: cytokine and chemokine genes (Il1a, Ccl3, Il1b, Cxcl2, Ccl2, Ccl4, Il10, Ifna4, Cxcl1, Cxcl10, Tnf) in PBMC; experiment: PBMC gene expression 6 hours post-treatment, qPCR (Example 17); assay type: in vivo, BALB/C mice; parameters: key to Cxcl2 gene expression, Mean (2^ΔΔCT) / Ccl2 gene expression, Mean (2^ΔΔCT) / Ccl4 gene expression, Mean (2^ΔΔCT) / Ifna4 gene expression, Mean (2^ΔΔCT) / Cxcl1 gene expression, Mean (2^ΔΔCT) / Cxcl10 gene expression, Mean (2^ΔΔCT) / Il1a gene expression, Mean (2^ΔΔCT) / Tnf gene expression, Mean (2^ΔΔCT): fold change vs untreated, 2^-ΔΔCT, normalized to B2M/UBB/GAPDH
Experimental: Hydrogels were administered as suspensions in […]. […] Tumors were excised, weighed and snap frozen. […] For PBMC isolations, approximately 600 μl of whole blood was collected via cardiac puncture. The collected whole blood from each individual mouse was diluted with a 1:1 ratio of pre-warmed PBS supplemented with 2% Fetal Bovine Serum (FBS). Then an equal volume of Histopaque-1083 was added to a new sterile 15 mL conical tube, where the diluted whole blood was layered over the Histopaque-1083. The mixture was then centrifuged at 400 g for 30 minutes. The top plasma layer was discarded, and the white translucent interlayer (mononuclear cells) was carefully transferred to a new sterile centrifuge tube. The mononuclear cells were then washed with PBS supplemented with 2% FBS and then were spun down at 250 g for 10 minutes. Afterwards, the cells were lysed with 2 ml of Ammonium-Chloride-Potassium (ACK) lysis buffer (Gibco) for 5 minutes at room temperature to get rid of the red blood cells following manufacturer's instruction. Subsequently, the cells were washed twice with PBS supplemented with 2% FBS and were centrifuged at 250 g for 10 minutes. Then, the supernatant was removed and the PBMC cell pellet was lysed in RLT buffer (Qiagen) and stored at −80° C. before being proceeded to RNA extraction and isolation. Lysates from untreated control samples and 6 hour treated samples were thawed and RNA was isolated using the RNeasy Mini Kit (QIAGEN) following manufacturer's recommendations. Following the first column washing step, DNA was digested directly on the column using the RNase-free DNase Set (TIANGEN) following manufacturer's recommendations. RNA was eluted with RNase-free water. RNA concentrations were measured using a NanoDrop (ThermoFisher) and then adjusted to 200 ng/mL with RNase-free water. RNA quality was assessed using a NanoDrop (ThermoFisher). […] Reverse transcription was performed using random primers, 10 mM dNTP mix, and RNase inhibitor (TIANGEN). Reverse transcription was performed with the following thermal steps: 25° C. for 10 minutes, 37° C. for 120 minutes, 55° C. for 5 minutes. 200 ng of cDNA was used for quantitative PCR using the RT^2 SYBR Green ROX qPCR Master mix (2×) kit (QIAGEN) following manufacturer's recommendations. Probe sets used for qPCR reactions are as follows: [table] Cycle thresholds (CT) were collected using a 384-well platform ABI-7900H real-time qPCR system (Applied Biosystems). B2M, Ubb and GAPDH were used as housekeeping control genes. Data is reported as the average of the 2^-ΔΔCT values for each treatment. 2^-ΔΔCT values were calculated with the following formula: 2^-ΔΔCT=2^−(ΔCT(treated)−ΔCT(untreated)) ΔCT(treated)═CT(treated)−CT (average treated housekeeping) where CT(treated)═CT of the gene of interest of a sample triplicate in the treatment group and CT (treated housekeeping)=Total average CT of the B2M, UBB and GAPDH housekeeping genes of the same sample triplicate in the same treatment group. ΔCT(untreated)═CT (untreated)−CT (untreated housekeeping) where CT (untreated)=average of the CTs of the untreated triplicates at the same timepoint as the CT(treated) comparator and CT (untreated housekeeping)=Total average CT of the B2M, UBB and GAPDH housekeeping genes of the untreated triplicates. For each gene, 3 technical replicates were analyzed per biological replicate. Undetermined technical replicate CT values were recorded as zero ΔCT values. 4-5 biological replicates were assessed in total.

CCOCc1nc2c(N)nc3ccccc3c2n1CC(C)(C)O [Compound 4, Resiquimod]
Frequency of CD4^+ T cells of CD3^+ T cells, Mean ([1]; injected right flank tumor): 69.1%
Frequency of CD8^+ T cells of CD3^+ T cells, Mean ([1]; injected right flank tumor): 29.23%
Frequency of IA-IE (MHCII)^+ antigen presenting cells of Ly-6C^+ antigen presenting cells, Mean ([1]; injected right flank tumor): 69.63%
Frequency of Ly-6C^+ T cells of CD8^+ T cells, Mean ([1]; injected right flank tumor): 53.7%
Frequency of Ly-6C^+ antigen presenting cells of non-T cells, Mean ([1]; injected right flank tumor): 2.5%
Frequency of CD4^+ T cells of CD3^+ T cells, Mean ([1]; uninjected left flank tumor): 69.25%
Frequency of CD8^+ T cells of CD3^+ T cells, Mean ([1]; uninjected left flank tumor): 29%
Frequency of IA-IE (MHCII)^+ antigen presenting cells of Ly-6C^+ antigen presenting cells, Mean ([1]; uninjected left flank tumor): 35.05%
Frequency of Ly-6C^+ T cells of CD8^+ T cells, Mean ([1]; uninjected left flank tumor): 48%
Frequency of Ly-6C^+ antigen presenting cells of non-T cells, Mean ([1]; uninjected left flank tumor): 7.8%
Ccl2 gene expression, Mean (2^ΔΔCT) ([2]; qPCR): 6.75
Ccl3 gene expression, Mean (2^ΔΔCT) ([2]; qPCR): 1.43†
Ccl4 gene expression, Mean (2^ΔΔCT) ([2]; qPCR): 1.31
Cxcl1 gene expression, Mean (2^ΔΔCT) ([2]; qPCR): 7.41
Cxcl2 gene expression, Mean (2^ΔΔCT) ([2]; qPCR): 35.37
Cxcl10 gene expression, Mean (2^ΔΔCT) ([2]; qPCR): 45.38
Ifna4 gene expression, Mean (2^ΔΔCT) ([2]; qPCR): 2.97
Il1a gene expression, Mean (2^ΔΔCT) ([2]; qPCR): 0.41
Il1b gene expression, Mean (2^ΔΔCT) ([2]; qPCR): 3.71†
Il10 gene expression, Mean (2^ΔΔCT) ([2]; qPCR): 2.77†
Tnf gene expression, Mean (2^ΔΔCT) ([2]; qPCR): 4.64
Ccl2 Fold change (4/13i) ([2]; ratio of mean 4 to mean 13i): 2.82
Ccl3 Fold change (4/13i) ([2]; ratio of mean 4 to mean 13i): 1.64
Ccl4 Fold change (4/13i) ([2]; ratio of mean 4 to mean 13i): 1.74
Cxcl1 Fold change (4/13i) ([2]; ratio of mean 4 to mean 13i): 11.54
Cxcl2 Fold change (4/13i) ([2]; ratio of mean 4 to mean 13i): 6.43
Cxcl10 Fold change (4/13i) ([2]; ratio of mean 4 to mean 13i): 21.41
Ifna4 Fold change (4/13i) ([2]; ratio of mean 4 to mean 13i): 20.48
Il1a Fold change (4/13i) ([2]; ratio of mean 4 to mean 13i): 1.78
Il1b Fold change (4/13i) ([2]; ratio of mean 4 to mean 13i): 7.92
Il10 Fold change (4/13i) ([2]; ratio of mean 4 to mean 13i): 2.29
Tnf Fold change (4/13i) ([2]; ratio of mean 4 to mean 13i): 4.45

— patent US20220054476A1, “SUSTAINED LOCAL DRUG LEVELS FOR INNATE IMMUNE AGONISTS” (Ascendis Pharma Oncology Division A/S, priority 2019, published 2022)
